# In patent publication US20150306096A1, “8'-HYDROXY-DIHYDROERGOTAMINE COMPOUNDS AND COMPOSITIONS” (MAP Pharmaceuticals, Inc., priority 2012, published 2015):
# Read-outs that look alike come from different tables or passages of the source.
# Key:
# human 5-HT1D receptor = biological target: T1, human 5-HT1D receptor (Homo sapiens, UniProt P28221); assay: Radioligand competition binding and kinetics, CHO-K1 membranes
# T1 construct: purchased Euroscreen; host or cells: CHO-K1
# Protocol: (§1) For kinetics of radioligand competitive binding, serial dilutions were performed from master solution in 100% DMSO to obtain intermediate concentrations 200-fold higher than the concentrations to be tested. Each test sample was diluted 100-fold in the assay buffer and dispensed into the test plate.
# 5-HT1D Radioligand Binding Assay
# Assay buffer: 50 mM Tris (pH 7.4), 4 mM CaCl2, 0.1% ascorbic acid
# Washing buffer: 50 mM Tris (pH 7.4)
# Membrane: recombinant CHO-K1-5-HT1D membranes thawed on ice and diluted in assay buffer (10 μg/well)
# Ligand: 5-HT (Sigma, H-9523)
# Radioligand: [^3H]-CT (Perkin Elmer, TRK1038, diluted in assay buffer for a final concentration of 0.5 nM) Filter plate: GF/B Unifilter plate (Perkin Elmer, 6005177) presoaked in 0.5% PEI for 2 hours at RT.
# (§2) Determination of the Kon constant. Radioligand association kinetics on each receptor were performed by adding in the wells of a 96 well plate 50 μL of radioligand and 50 μL of membrane extracts. The samples were incubated for the times reported in Table 3 below at a temperature optimized for each receptor and filtered over a filter plate. After washing the filters 5 times with 0.5 mL of ice-cold washing buffer, 50 μL of Microscint 20 (Packard) were added to the filters and the plates were incubated 15 min on an orbital shaker and then counted for 1 min/well. This allowed determination of the kobs for each radioligand. Association kinetics were performed at 5 different radioligand concentrations optimized for each receptor (see Table 3 below) to determine 5 different kobs. The different kobs were then plotted against the [radioligand] and the K. was calculated using the following equation: kon=(kobs−koff)[radioligand].
# Determination of the Koff constant. Radioligand dissociation kinetics on each receptor were performed by adding in the wells of a 96 well plate 45 μL of radioligand and 45 μL of membrane extracts. The samples were incubated as reported in Table 4 below at a temperature optimized for each receptor until binding equilibrium was reached as determined by the association kinetics experiment. Then, 100 μL of cold competitor (reference ligand) were added at a 200 fold excess (final concentration) for the times reported in Table 4 at the optimized temperature. The samples were then filtered over a filter plate. After washing the filters 5 times with 0.5 mL of ice-cold washing buffer, 50 μL of Microscint 20 (Packard) were added to the filters and the plates were incubated 15 min on an orbital shaker and then counted for 1 min/well. This allowed determination of the koff for each radioligand.
# Determination of IC50 and Ki constant for each test compound. Radioligand competition binding on each receptor were performed by adding in the wells of a 96 well plate […] of test compound at increasing concentration as reported in Table 5 below, 25 μL of radioligand and 25 μL of membrane extracts. The samples were incubated for 60 min (or 4 hours for a second experiment on 5-HT2B receptors) at a temperature optimized for each receptor and then filtered over a filter plate. After washing the filters 5 times with 0.5 mL of ice-cold washing buffer, 50 μL of Microscint 20 (Packard) were added to the filters and the plates were incubated 15 min on an orbital shaker and then counted for 1 min/well. The test compounds were tested in duplicate at the nanomolar concentrations reported below in Table 5.
# Determination of kon and koff constants for each test compound. Each compound was first assessed in a pilot experiment to evaluate its effect on the kinetic binding of each receptor-radioligand pair. These pilot experiments were performed at on compound concentration and were composed of 10 time-points measurements in duplicate (2, 5, 10, 20, 30, 45, 60, 90, 120 and 150 minutes).
# [1] = cited from earlier work
# human 5-HT1A receptor = biological target: T2, human 5-HT1A receptor (Homo sapiens, UniProt P08908); assay: Radioligand competition binding and kinetics, CHO-K1 membranes
# T2 construct: purchased Euroscreen; host or cells: CHO-K1
# T2 sequence (P08908 1-422): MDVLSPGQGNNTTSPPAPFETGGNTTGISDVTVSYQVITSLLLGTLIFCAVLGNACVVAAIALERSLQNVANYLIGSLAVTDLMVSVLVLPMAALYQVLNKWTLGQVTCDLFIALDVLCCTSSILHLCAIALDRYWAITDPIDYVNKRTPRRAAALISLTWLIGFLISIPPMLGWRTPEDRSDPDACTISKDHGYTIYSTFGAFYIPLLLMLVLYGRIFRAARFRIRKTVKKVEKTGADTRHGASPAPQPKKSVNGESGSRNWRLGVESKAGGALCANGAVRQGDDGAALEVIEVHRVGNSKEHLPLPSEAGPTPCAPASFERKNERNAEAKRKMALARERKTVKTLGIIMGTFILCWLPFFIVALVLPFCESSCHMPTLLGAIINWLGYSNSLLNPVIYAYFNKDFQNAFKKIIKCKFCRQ
# Protocol: as §1
# as §2, with “Association kinetics were performed at 5 different radioligand concentrations optimized for each receptor (see Table 3 below) to determine 5 different kobs.” left out
# Determination of the Koff constant. […] The samples were incubated as reported in Table 4 below at a temperature optimized for each receptor until binding equilibrium was reached as determined by the association kinetics experiment. […] After washing the filters 5 times with 0.5 mL of ice-cold washing buffer, 50 μL of Microscint 20 (Packard) were added to the filters and the plates were incubated 15 min on an orbital shaker and then counted for 1 min/well. […]
# Determination of IC50 and Ki constant for each test compound. […] After washing the filters 5 times with 0.5 mL of ice-cold washing buffer, 50 μL of Microscint 20 (Packard) were added to the filters and the plates were incubated 15 min on an orbital shaker and then counted for 1 min/well. […]
# Determination of kon and koff constants for each test compound. Each compound was first assessed in a pilot experiment to evaluate its effect on the kinetic binding of each receptor-radioligand pair. […]
# T1 sequence (P28221 whole entry): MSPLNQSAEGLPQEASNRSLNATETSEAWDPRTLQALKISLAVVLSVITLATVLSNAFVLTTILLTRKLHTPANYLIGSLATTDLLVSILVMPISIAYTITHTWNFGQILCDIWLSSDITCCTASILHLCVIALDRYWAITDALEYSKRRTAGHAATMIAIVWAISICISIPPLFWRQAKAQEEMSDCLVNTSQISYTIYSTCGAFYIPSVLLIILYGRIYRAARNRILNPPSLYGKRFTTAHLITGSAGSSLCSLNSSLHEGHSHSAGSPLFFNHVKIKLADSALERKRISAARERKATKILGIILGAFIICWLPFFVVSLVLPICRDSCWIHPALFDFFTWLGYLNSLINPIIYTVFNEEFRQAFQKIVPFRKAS
SMILES,IC50 (human 5-HT1D receptor),Avg Dissociation half-life (human 5-HT1D receptor; 5-HT1D),koff (human 5-HT1D receptor; read-out: Avg Koff),serum half-life ([1]; serum),IC50 (human 5-HT1A receptor),Avg Koff (human 5-HT1D receptor; 5-HT1D),"IC50 (human 5-HT1D receptor; 5-HT1D, [3H]-CT, read-out: IC50 from binding assay)",metabolite concentration relative to parent DHE ([1]; previous studies),"IC50 (human 5-HT1A receptor; 5-HT1A, [3H]-WAY100635, read-out: IC50 from binding assay)"
"CN1C[C@H](C(=O)N[C@]2(C)O[C@@]3(O)[C@@H]4CCCN4C(=O)[C@H](Cc4ccccc4)N3C2=O)C[C@@H]2c3cccc4[nH]cc(c34)C[C@H]21 [DHE, Dihydroergotamine]",0.65 nM,1.28 h,0.00015 s⁻¹,10 to 13 h,0.27 nM,,,,
"CN1C[C@H](C(=O)N[C@]2(C)O[C@@]3(O)[C@@H]4CCC(O)N4C(=O)[C@H](Cc4ccccc4)N3C2=O)C[C@@H]2c3cccc4[nH]cc(c34)C[C@H]21 (stereo partly shown) [8′-OH DHE, 8′-Hydroxy-Dihydroergotamine]",,1.10 h,,,,0.000175 s⁻¹,0.8 nM,5 to 7 times,0.43 nM
